The nature of this data set: Solid stability test (storage stability; powder X-ray diffraction and HPLC analog amount). In kind it is physicochemical. Particulars: 40° C. (hermetically sealed), six months, brown glass bottle. The method, then: Powder X-ray diffraction was performed by lightly pulverizing an appropriate amount of a test substance using an agate mortar as necessary, and measuring the test substance in accordance with the following test conditions.
The storage stability of crystal I of the imidazooxazine compound obtained in accordance with Example 1 was tested after six months of storage at 40° C.
Storage condition: 40° C. (hermetically sealed)
Measurement point: Six months
Container: Brown glass bottle
The powder X-ray diffraction of the sample after storage was measured using the method described above. Alternations in analog amount were analyzed by HPLC according to the following manner.
Method for preparing a sample solution: the sample was dissolved in 50% acetonitrile so that the concentration of the sample became 0.5 mg/mL.
Column: Acentis express C18, 4.6×150 mm, 2.7 μm,
Column temperature: 40° C.
Column flow rate: 1.5 mL/min
Mobile phase: A; 0.1% phosphate, B; acetonitrile

Turning to `C[C@]1(O)C[C@@](N)(c2ccc(-c3nc4n(c3-c3ccccc3)COc3ccncc3-4)cc2)C1` [crystal I, trans-3-amino-1-methyl-3-(4-(3-phenyl-5H-imidazo[1,2-c]pyrido[3,4-e][1,3]oxazin-2-yl)phenyl)cyclobutanol], the “changes in powder X-ray diffraction pattern after storage” value is “not observed”. In addition, the “amount of analogs (HPLC) after storage” value (HPLC UV 210 nm) is given as “not increased”.

For the origin of these results see patent US10323044B2, “Crystal of imidazo-oxazine, pharmaceutical composition containing said crystal, and method for producing said crystal” (TAIHO PHARMACEUTICAL CO., LTD., priority 2015, dated 2019).
